The source of these data is patent publication US11008323B2, “Substituted tricyclic 1,4-benzodiazepinone derivatives as allosteric modulators of group II metabotropic glutamate receptors” (Domain Therapeutics, priority 2015, dated 2021).

Counter-ions that a name gives are not always drawn.

By EC50 is commonly meant the concentration giving half of the maximal effect. The low end stands for a more potent agent, the high end for a less potent agent. A word on the melting point: it is the temperature, or range, at which the solid turns liquid.

In the first data set the target is T1, human mGluR3 (hmGluR3) (Homo sapiens, UniProt Q14832).
T1 construct: expressed in transfected cells; host or cells: HEK-293 cells, transient co-transfection by electroporation
T1 sequence (Q14832 23-879): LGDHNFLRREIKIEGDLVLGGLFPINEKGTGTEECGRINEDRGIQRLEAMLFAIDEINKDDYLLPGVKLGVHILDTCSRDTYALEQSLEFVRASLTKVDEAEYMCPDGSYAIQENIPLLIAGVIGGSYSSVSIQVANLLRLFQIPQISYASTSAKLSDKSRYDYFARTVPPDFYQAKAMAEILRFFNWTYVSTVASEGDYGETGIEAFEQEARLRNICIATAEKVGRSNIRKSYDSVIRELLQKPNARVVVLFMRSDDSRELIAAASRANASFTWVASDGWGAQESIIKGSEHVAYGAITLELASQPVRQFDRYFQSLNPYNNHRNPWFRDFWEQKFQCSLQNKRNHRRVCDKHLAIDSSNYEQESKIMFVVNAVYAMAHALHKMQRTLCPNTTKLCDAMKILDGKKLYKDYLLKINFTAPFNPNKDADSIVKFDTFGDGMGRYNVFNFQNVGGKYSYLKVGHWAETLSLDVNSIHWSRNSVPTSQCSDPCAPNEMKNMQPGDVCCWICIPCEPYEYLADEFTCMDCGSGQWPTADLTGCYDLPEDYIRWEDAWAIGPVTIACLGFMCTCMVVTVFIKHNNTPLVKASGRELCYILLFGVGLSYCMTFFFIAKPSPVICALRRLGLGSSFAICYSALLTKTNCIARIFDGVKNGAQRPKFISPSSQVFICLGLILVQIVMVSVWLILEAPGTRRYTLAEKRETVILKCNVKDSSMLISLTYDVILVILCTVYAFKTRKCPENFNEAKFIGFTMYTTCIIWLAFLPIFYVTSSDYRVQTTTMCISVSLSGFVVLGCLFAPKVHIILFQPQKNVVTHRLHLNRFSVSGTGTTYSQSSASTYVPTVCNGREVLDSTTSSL
Put plainly: Human mGluR3 positive allosteric modulator evaluation using Ca++ functional assay. The conditions noted are these: hmGluR3 transiently over-expressed in HEK-293 cells; stimulated by EC50 glutamate concentration; intracellular Ca2+ (Fluo4AM, FLIPR Tetra). Format: cell-based. An outline of the steps:
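Calcium flux (Fluo4, ex 485/em 525 nm) recorded first 10 min with compound alone, then 3 min after an EC50 glutamate challenge, giving agonist and PAM EC50 from 20-concentration sigmoidal fits. Receptor was transiently co-transfected in HEK-293 with chimeric G protein and glutamate transporters.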
For `Cc1cc(-c2ccc3c(c2)-n2cccc2C(=O)N(C)C32CC2)ccn1` [Example 26, 5-Methyl-9-(2-methylpyridin-4-yl)-spiro[benzo[f]pyrrolo[1,2-a][1,4]diazepine-6,1′-cyclopropan]-4(5H)-one], the EC50 is 100 to 1000 nM. In turn, `CCc1ccc(-c2ccc3c(c2)-n2cc(-c4ccccc4)cc2C(=O)N(C)C32CC2)cn1` [Example 112, 5-methyl-2-phenyl-9-(6-ethylpyridin-3-yl)-spiro[benzo[f]pyrrolo[1,2-a][1,4]diazepine-6,1′-cyclopropan]-4(5H)-one] came in with an EC50 of less than 100 nM. `CN1C(=O)c2cccn2-c2cc(-c3cccnc3C3CC3)ccc2C12CC2` [Example 62, 5-Methyl-9-(2-cyclopropylpyridin-3-yl)-spiro[benzo[f]pyrrolo[1,2-a][1,4]diazepine-6,1′-cyclopropan]-4(5H)-one] returned an EC50 of 100 to 1000 nM. The same measure, in the same setting: the same measure for `Cc1ncccc1-c1ccc2c(c1)-n1ccnc1C(=O)N(C)C2` [Example 216, 5-Methyl-9-(2-methylpyridin-3-yl)-5,6-dihydro-4H-benzo[f]imidazo[1,2-a][1,4]diazepin-4-one]: greater than 1000 nM. On the same count and under the same terms, next, `Cc1ncncc1-c1ccc2c(c1)-n1cccc1C(=O)N(C)C21CC1` [Example 59, 5-Methyl-9-(4-methyl-pyrimidin-5-yl)-spiro[benzo[f]pyrrolo[1,2-a][1,4]diazepine-6,1′-cyclopropan]-4(5H)-one]: greater than 1000 nM; `CCc1ncccc1-c1ccc2c(c1)-n1cc(COC)cc1C(=O)N(C)C21CC1` [Example 206]: less than 100 nM.

`Cc1ncccc1-c1ccc2c(c1)-n1cc(-c3cnc[nH]3)cc1C(=O)N(C)C21CC1` [Example 183] showed an EC50 of less than 100 nM. Molecule `CN1C(=O)c2cccn2-c2cc(-c3cc(F)ccn3)ccc2C12CC2` [Example 57, 5-Methyl-9-(4-fluoropyridin-2-yl)-spiro[benzo[f]pyrrolo[1,2-a][1,4]diazepine-6,1′-cyclopropan]-4(5H)-one] yielded an EC50 of 100 to 1000 nM. Same read-out and setting: next, `CN1C(=O)c2cccn2-c2cc(Cl)ccc2C1(C)C` [Example 222, 9-Chloro-5,6,6-trimethyl-5,6-dihydro-benzo[f]pyrrolo[1,2-a][1,4]diazepin-4-one]: greater than 1000 nM; `Cc1ncccc1-c1ccc2c(c1)-n1cc(-c3ccncc3)cc1C(=O)N(C)C21CC1` [Example 145]: less than 100 nM.

The molecule `Cc1ncccc1-c1ccc2c(c1)-n1cc(C3CC3)cc1C(=O)N(C)C21CC1` [Example 155] came in with an EC50 of less than 100 nM. `Cc1ncccc1-c1ccc2c(c1)-n1cc(-c3ccccc3)nc1C(=O)N(C)C21CC1` [Example 140, 9-(2-Methyl-pyridin-3-yl)-5-methyl-2-phenyl-spiro[benzo[f]imidazo[1,2-a][1,4]diazepine-6,1′-cyclopropan]-4(5H)-one] showed an EC50 of less than 100 nM.

Take `CN1C(=O)c2cc(-c3ccccc3)nn2-c2cc(-c3cccc(Cl)c3)ccc2C12CC2` [Example 130, 9-(3-Chloro-phenyl)-5-methyl-2-phenyl-spiro[benzo[f]pyrazolo[1,5-a][1,4]diazepine-6,1′-cyclopropan]-4(5H)-one]: the EC50 was 100 to 1000 nM. In the case of `CN1Cc2ccc(-c3ccc(N)nc3)cc2-n2cc(-c3ccccc3)cc2C1=O` [Example 165, 9-(6-Amino-pyridin-3-yl)-5-methyl-2-phenyl-5,6-dihydro-benzo[f]pyrrolo[1,2-a][1,4]diazepin-4-one], the EC50 was 100 to 1000 nM.

`CCc1ncccc1-c1ccc2c(c1)-n1cc(-c3ccccc3F)cc1C(=O)N(C)C21CC1` [Example 162] displayed an EC50 of less than 100 nM.

Turning to `CC1c2ccc(-c3ccc(N(C)C)nc3)cc2-n2cccc2C(=O)N1C` (stereo not drawn) [Example 219, 9-(6-Dimethylamino-pyridin-3-yl)-5,6-dimethyl-5,6-dihydro-benzo[f]pyrrolo[1,2-a][1,4]diazepin-4-one], the EC50 is less than 100 nM. With `CCC1c2ccc(Br)cc2-n2cccc2C(=O)N1C` (stereo not drawn) [Example 214, 9-Bromo-5-methyl-6-ethyl-5,6-dihydro-benzo[f]pyrrolo[1,2-a][1,4]diazepin-4-one], the EC50 is greater than 1000 nM. On to `CN1C(=O)c2cccn2-c2cc(C3=CCNCC3)ccc2C12CC2` [Example 46, 5-Methyl-9-(1,2,3,6-tetrahydro-pyridin-4-yl)-spiro[benzo[f]pyrrolo[1,2-a][1,4]diazepine-6,1′-cyclopropan]-4(5H)-one], for which the EC50 was greater than 1000 nM. On the same count and under the same terms, next, `Cc1ncccc1-c1ccc2c(c1)-n1cc(-c3ccnn3C)cc1C(=O)N(C)C21CC1` [Example 160]: less than 100 nM. Still for that read-out and setting: the same measure for `CN1C(=O)c2cc(-c3ccccc3)cn2-c2cc(-c3ccncc3)ccc2C12CC2` [Example 102, 5-Methyl-2-phenyl-9-(pyridin-4-yl)-spiro[benzo[f]pyrrolo[1,2-a][1,4]diazepine-6,1′-cyclopropan]-4(5H)-one]: less than 100 nM.

Tested on in the next data set: not given
Test: not given
Conditions: not given
The molecule `Cc1ncccc1-c1ccc2c(c1)-n1cc(-c3ccccc3)nc1C(=O)N(C)C21CC1` (as salt: hydrochloride) [Example 140, 9-(2-Methyl-pyridin-3-yl)-5-methyl-2-phenyl-spiro[benzo[f]imidazo[1,2-a][1,4]diazepine-6,1′-cyclopropan]-4(5H)-one] displayed a melting point of 235 to 240 °C.

`CCc1ncccc1-c1ccc2c(c1)-n1cccc1C(=O)N(C)C21CC1` (as salt: hydrochloride) [Example 24, 5-Methyl-9-(2-ethylpyridin-3-yl)-spiro[benzo[f]pyrrolo[1,2-a][1,4]diazepine-6,1′-cyclopropan]-4(5H)-one]: the melting point lay within 136 to 143 °C. In turn, `Cc1ncccc1-c1cccc2c1-n1cccc1C(=O)N(C)C21CC1` (as salt: hydrochloride) [Example 92, 10-(2-Methyl-pyridin-3-yl)-5-methyl-spiro[benzo[f]pyrrolo[1,2-a][1,4]diazepine-6,1′-cyclopropan]-4(5H)-one] yielded a melting point of 250 °C. On the same count and under the same terms, next, `Cc1ncccc1-c1ccc2c(c1F)-n1cccc1C(=O)N(C)C21CC1` (as salt: hydrochloride) [Example 75, 10-Fluoro-5-methyl-9-(2-methyl-pyridin-3-yl)-spiro[benzo[f]pyrrolo[1,2-a][1,4]diazepine-6,1′-cyclopropan]-4(5H)-one]: 166 to 184 °C; `CNc1ccc(-c2ccc3c(c2)-n2cc(-c4ccccc4)cc2C(=O)N(C)C32CC2)cn1` (as salt: hydrochloride) [Example 118, 5-Methyl-2-phenyl-9-(6-methylamino-pyridin-3-yl)-spiro[benzo[f]pyrrolo[1,2-a][1,4]diazepine-6,1′-cyclopropan]-4(5H)-one]: greater than 250 °C. Molecule `Cc1ncccc1-c1ccc2c(c1)-n1c(F)ccc1C(=O)N(C)C21CC1` (as salt: hydrochloride) [Example 81, 9-(2-Methyl-pyridin-3-yl)-1-fluoro-5-methyl-spiro[benzo[f]pyrrolo[1,2-a][1,4]diazepine-6,1′-cyclopropan]-4(5H)-one] came in with a melting point of 150 to 158 °C. Same read-out and setting: the same measure for `CCCc1ncccc1-c1ccc2c(c1)-n1cccc1C(=O)N(C)C21CC1` (as salt: hydrochloride) [Example 61, 5-Methyl-9-(2-propylpyridin-3-yl)-spiro[benzo[f]pyrrolo[1,2-a][1,4]diazepine-6,1′-cyclopropan]-4(5H)-one]: 150 to 157 °C.
